Assay results taken from patent US20260001871A1, “TRIAZOLE DERIVATIVES AS MODULATORS OF MAS-RELATED G-PROTEIN RECEPTOR D” (ESCIENT PHARMACEUTICALS, INC., priority 2022, published 2026).

Molecular target: human MRGPRD (Homo sapiens, UniProt Q8TDS7)
Assay: MRGPRD antagonist activity, IP-One HTRF assay in CHO cells stably expressing human MRGPRD (versus 100 μM β-Alanine agonist)
Assay type: cell-based
Summary of the method: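 CHO cells stably expressing human MRGPRD, plated overnight at 37 °C, were treated with antagonist plus agonist in Tris-HCl/NaCl/LiCl buffer pH 8, incubated 1 h at 37 °C then 1 h at room temperature. IP-1 accumulation read by HTRF; IC50 and percent antagonism of maximum efficacy averaged, SEM reported.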

Sequence of human MRGPRD (Q8TDS7 whole entry): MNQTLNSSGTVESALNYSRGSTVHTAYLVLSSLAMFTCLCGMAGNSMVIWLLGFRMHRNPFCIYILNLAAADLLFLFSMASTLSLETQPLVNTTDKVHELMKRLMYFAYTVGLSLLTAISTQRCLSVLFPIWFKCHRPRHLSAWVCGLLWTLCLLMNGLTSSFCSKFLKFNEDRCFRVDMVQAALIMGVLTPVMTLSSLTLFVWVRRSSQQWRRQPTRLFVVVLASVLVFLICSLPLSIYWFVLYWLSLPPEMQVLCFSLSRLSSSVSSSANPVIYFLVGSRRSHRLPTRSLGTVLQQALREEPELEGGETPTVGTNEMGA

| Structure (SMILES) | IC50 |
| --- | --- |
| Cc1cc(-c2ccc(-n3nnc(C(=O)Nc4ccncc4)c3C3CC3)cc2)n(C)n1 [Compound 7-132] | 500 to 1000 nM |
| CCn1nc(C)c(-c2ccc(-n3nnc(C(=O)Nc4ccc(NS(C)(=O)=O)cc4)c3C3CC3)cc2)c1C [Compound 9-28] | 500 to 1000 nM |
| Cc1ccc(-n2nnc(C(=O)Nc3ccncc3)c2C2CCC2)cc1 [Compound 3-5] | 500 to 1000 nM |
| CS(=O)(=O)Nc1cccc(NC(=O)c2nnn(-c3ccc(-c4ccccc4)cc3)c2C2CC2)c1 [Compound 14-77] | > 3000 nM |
| COc1cccc(-n2nnc(C(=O)Nc3ccncc3)c2C2CC2)c1 [Compound 3-4] | 1000 to 3000 nM |
| CC(NC(=O)c1nnn(-c2ccc(-c3ccccc3)cc2)c1C1CC1)c1ccn(C)n1 (centres unmarked) [Compound 14-33] | 1000 to 3000 nM |
| CCc1ccc(-n2nnc(C(=O)Nc3ccncc3)c2C2CC2)cc1-c1cnn(C(C)C)c1 [Compound 7-304] | 1000 to 3000 nM |
| Cc1nn(C)c(CO)c1-c1ccc(-n2nnc(C(=O)Nc3ccncc3)c2C2CC2)cc1 [Compound 7-133] | 500 to 1000 nM |
| Cc1nn2ccccc2c1-c1ccc(-n2nnc(C(=O)Nc3ccncc3)c2C2CC2)cc1 [Compound 7-18] | < 100 nM |
| Cc1cnn(C2CCCCO2)c1-c1ccc(-n2nnc(C(=O)Nc3ccncc3)c2C2CC2)cc1 (centres unmarked) [Compound 7-193] | 1000 to 3000 nM |
| O=C(Nc1ccncc1)c1nnn(-c2ccc(-c3ccc(CC(F)(F)F)cc3)cc2)c1C1CC1 [Compound 7-59] | 100 to 500 nM |
| N#Cc1ccccc1-c1cccc(-n2nnc(C(=O)Nc3ccncc3)c2C2CC2)c1 [Compound 7-334] | > 3000 nM |
| O=C(Nc1ccncc1)c1nnn(-c2ccc(-c3ccoc3)cc2)c1C1CC1 [Compound 7-32] | 100 to 500 nM |
| O=C(Nc1cncc2[nH]ncc12)c1nnn(-c2ccc(-c3ccccc3)cc2)c1C1CC1 [Compound 14-60] | 1000 to 3000 nM |
| Cn1ncc2c1CCC2NC(=O)c1nnn(-c2ccc(-c3ccccc3)cc2)c1C1CC1 (centres unmarked) [Compound 14-70] | 1000 to 3000 nM |
| O=C(NCc1c[nH]cn1)c1nnn(-c2ccc(-c3ccccc3)cc2)c1C1CC1 [Compound 14-41] | 1000 to 3000 nM |
| Cc1cc(-n2nnc(C(=O)Nc3ccncc3)c2C2CC2)ccc1-c1c(C)nn(C)c1C [Compound 7-315] | 1000 to 3000 nM |
| COc1ccc(-c2cccc(-n3nnc(C(=O)Nc4ccncc4)c3C3CC3)c2)cc1 [Compound 7-268] | 500 to 1000 nM |
| COc1ccccc1CCNC(=O)c1nnn(-c2ccc(-c3ccccc3)cc2)c1C1CC1 [Compound 14-1] | > 3000 nM |
| Cc1cc(NC(=O)c2nnn(-c3cccc(-c4ccn(-c5ccccc5)n4)c3)c2C2CC2)ccn1 [Compound 7-282] | 500 to 1000 nM |
| CN(C)C(=O)c1cccc(-c2ccc(-n3nnc(C(=O)Nc4ccncc4)c3C3CC3)cc2)c1 [Compound 7-204] | 1000 to 3000 nM |
| O=C(Nc1ccncc1)c1nnn(-c2cccc(-c3cccc(C(F)(F)F)c3)c2)c1C1CC1 [Compound 7-294] | 1000 to 3000 nM |
| Cc1c(-c2cccc(-n3nnc(C(=O)Nc4ccncc4)c3C3CC3)c2)cnn1-c1ccccc1 [Compound 7-240] | 100 to 500 nM |
| COc1cccc(C)c1NC(=O)c1nnn(-c2ccc(-c3ccccc3)cc2)c1C1CC1 [Compound 14-62] | 1000 to 3000 nM |
| CS(=O)(=O)Nc1ccc(NC(=O)c2nnn(-c3ccc(-c4ccccc4)cc3)c2C2CC2)cc1 [Compound 14-19] | 500 to 1000 nM |

| Structure (SMILES) | IC50 |
| --- | --- |
| CCn1cc(CNC(=O)c2nnn(-c3ccc(-c4ccccc4)cc3)c2C2CC2)cn1 [Compound 14-31] | 1000 to 3000 nM |
| O=C(Nc1ccncc1)c1nnn(-c2ccc(-c3ccns3)cc2)c1C1CC1 [Compound 7-125] | 500 to 1000 nM |
| CCc1cc(NC(=O)c2nnn(-c3ccc(-c4ccccc4)cc3)c2C2CC2)ccn1 [Compound 14-15, 1-([1,1′-biphenyl]-4-yl)-5-cyclopropyl-N-(2-ethylpyridin-4-yl)-1H-1,2,3-triazole-4-carboxamide] | 100 to 500 nM |
| CC(=O)c1ccc(-c2cccc(-n3nnc(C(=O)Nc4ccncc4)c3C3CC3)c2)cc1F [Compound 7-280] | 500 to 1000 nM |
| CCn1cc(CNC(=O)c2nnn(-c3ccc(-c4c(C)nn(-c5ccccc5)c4C)cc3)c2C2CC2)cn1 [Compound 10-9] | < 100 nM |
| COc1ccc(-c2cccc(-n3nnc(C(=O)Nc4ccncc4)c3C3CC3)c2)c(F)c1 [Compound 7-247] | 500 to 1000 nM |
| Cc1cc(NC(=O)c2nnn(-c3ccc(-c4ccccc4)cc3OC(F)(F)F)c2C2CC2)ccn1 [Compound 7-82] | 100 to 500 nM |
| CO[C@H]1CC[C@H](NC(=O)c2nnn(-c3ccc(-c4ccccc4)cc3)c2C2CC2)CC1 [Compound 14-40] | 1000 to 3000 nM |
| O=C(Nc1ncnc2[nH]ncc12)c1nnn(-c2ccc(-c3ccccc3)cc2)c1C1CC1 [Compound 14-53] | 1000 to 3000 nM |
| COc1ccc(-c2ccc(-n3nnc(C(=O)Nc4ccncc4)c3C3CC3)cc2)c(F)c1 [Compound 7-35] | 100 to 500 nM |
| O=C(Nc1ccncc1)c1nnn(-c2ccc(-c3ccccc3CO)cc2)c1C1CC1 [Compound 7-151] | 500 to 1000 nM |
| Cc1c(NC(=O)c2nnn(-c3ccc(-c4ccccc4)cc3)c2C2CC2)nn(C)c1C [Compound 14-71] | > 3000 nM |
| Cc1cc(-c2ccc(-n3nnc(C(=O)Nc4ccncc4)c3C3CC3)cc2)c(C)s1 [Compound 7-121] | 500 to 1000 nM |
| Cc1nn(C)c(C)c1-c1ccc(-n2nnc(C(=O)Nc3ccncc3)c2C2CC2)c(C#N)c1 [Compound 7-267] | 500 to 1000 nM |
| O=C(Nc1ccncc1)c1nnn(-c2ccc(-c3cccs3)cc2)c1C1CC1 [Compound 7-152] | 500 to 1000 nM |
| N#CCc1cccc(-c2cccc(-n3nnc(C(=O)Nc4ccncc4)c3C3CC3)c2)c1 [Compound 7-269] | 500 to 1000 nM |
| Cc1cc(NC(=O)c2nnn(-c3ccc(-c4ccc(F)cc4)cc3)c2C2CC2)ccn1 [Compound 7-81] | 100 to 500 nM |
| Cc1nn(C)c(C)c1-c1ccc(-n2nnc(C(=O)Nc3ccccn3)c2C(C)C)cc1 [Compound 17-25] | 100 to 500 nM |
| COc1ccc(C2(NC(=O)c3nnn(-c4ccc(-c5ccc(C#N)cc5)cc4)c3C3CC3)CC2)cn1 [Compound 17-6] | 100 to 500 nM |
| Cc1nn(C)c(C)c1-c1ccc(-n2nnc(C(=O)Nc3ccncc3)c2C2CC2)cn1 [Compound 7-232] | 100 to 500 nM |
| O=C(Nc1ccncc1)c1nnn(-c2cccc(-c3ccccc3O)c2)c1C1CC1 [Compound 7-276] | 500 to 1000 nM |
| Cc1ccc(NC(=O)c2nnn(-c3ccc(-c4ccc(C#N)cc4C)cc3)c2C2CC2)cn1 [Compound 9-30] | 1000 to 3000 nM |
| Cc1cc(-c2ccc(-n3nnc(C(=O)Nc4ccncc4)c3C3CC3)cc2)on1 [Compound 7-198] | 1000 to 3000 nM |
| Cc1cc(NC(=O)c2nnn(-c3ccc(-c4ccc(C#N)cc4)cc3)c2C(C)C)ccn1 [Compound 17-28] | 500 to 1000 nM |
| Cc1csc(-c2ccc(-n3nnc(C(=O)Nc4ccncc4)c3C3CC3)cc2)n1 [Compound 7-140] | 500 to 1000 nM |

| Structure (SMILES) | IC50 |
| --- | --- |
| O=C(Nc1ccncc1)c1nnn(-c2cccc3ccccc23)c1C1CC1 [Compound 6-2, 5-cyclopropyl-1-(naphthalen-1-yl)-N-(pyridin-4-yl)-1H-1,2,3-triazole-4-carboxamide] | 100 to 500 nM |
| Cc1cnc(-c2ccc(-n3nnc(C(=O)Nc4ccncc4)c3C3CC3)cc2)s1 [Compound 7-89] | 100 to 500 nM |
| Cc1cscc1-c1ccc(-n2nnc(C(=O)Nc3ccncc3)c2C2CC2)cc1 [Compound 7-181] | 1000 to 3000 nM |
| O=C(Nc1ccncc1)c1nnn(-c2cccc(-c3ccc(Cl)cc3)c2)c1C1CC1 [Compound 7-307] | 1000 to 3000 nM |
| CC1(C)COCCC1NC(=O)c1nnn(-c2ccc(-c3ccccc3)cc2)c1C1CC1 (centres unmarked) [Compound 14-44] | 1000 to 3000 nM |
| Cc1ccc(-n2nnc(C(=O)Nc3ccncc3)c2C2CC2)cc1C [Compound 2-5] | 1000 to 3000 nM |
| Cc1cc(NC(=O)c2nnn(-c3ccc(-c4c(C)nn5ccccc45)cc3)c2C2CC2)ccn1 [Compound 8-1] | < 100 nM |
| CC(NC(=O)c1nnn(-c2ccc(-c3ccccc3)cc2)c1C1CC1)c1cccnc1 (centres unmarked) [Compound 14-49] | 1000 to 3000 nM |
| O=C(Nc1ccncc1)c1nnn(-c2ccc(-c3ccnn3C3CCC3)cc2)c1C1CC1 [Compound 7-116] | 500 to 1000 nM |
| O=C(Nc1ccnc(N2CCOCC2)c1)c1nnn(-c2ccc(-c3ccccc3)cc2)c1C1CC1 [Compound 14-48] | 1000 to 3000 nM |
| Cc1cc(NC(=O)c2nnn(-c3ccc(-c4ccc(C#N)cc4)cn3)c2C(C)C)ccn1 [Compound 17-15] | 100 to 500 nM |
| O=C(Nc1ccncc1)c1nnn(-c2ccccc2C(F)(F)F)c1C1CC1 [Compound 4-3] | 1000 to 3000 nM |
| Cc1ccc(-c2cccc(-n3nnc(C(=O)Nc4ccncc4)c3C3CC3)c2)cc1 [Compound 7-318] | 1000 to 3000 nM |
| CC(C)n1nccc1-c1ccc(-n2nnc(C(=O)Nc3ccncc3)c2C2CC2)cc1 [Compound 7-106] | 100 to 500 nM |
| CN(C)c1ccccc1-c1ccc(-n2nnc(C(=O)Nc3ccncc3)c2C2CC2)cc1 [Compound 7-172] | 1000 to 3000 nM |
| Cc1nn(C)c(C)c1-c1ccc(-n2nnc(C(=O)Nc3cccnc3)c2C(C)C)cc1 [Compound 17-29] | 500 to 1000 nM |
| COc1ccc(-c2cccc(-n3nnc(C(=O)Nc4ccncc4)c3C3CC3)c2)cc1OC [Compound 7-313] | 1000 to 3000 nM |
| Cc1ccc(CNC(=O)c2nnn(-c3ccc(-c4ccc(C#N)cc4C)cc3)c2C2CC2)cn1 [Compound 7-95] | 100 to 500 nM |
| Cc1nn(-c2ccccc2)c(C)c1-c1ccc(-n2nnc(C(=O)NCc3ccc(C(C)C)nc3)c2C2CC2)cc1 [Compound 9-15] | 100 to 500 nM |
| NC(=O)c1ccc(-c2ccc(-n3nnc(C(=O)NC4(c5cccnc5)CC4)c3C3CC3)cc2)cc1 [Compound 18-4] | 1000 to 3000 nM |
| O=C(Nc1ccncc1)c1nnn(-c2cc3ccccc3s2)c1C1CC1 [Compound 4-8] | 1000 to 3000 nM |
| CC(=O)c1cccc(-c2cccc(-n3nnc(C(=O)NC4(c5cccnc5)CC4)c3C3CC3)c2)c1 [Compound 18-20] | 100 to 500 nM |
| Cc1cc(NC(=O)c2nnn(C3CC=C(c4ccc(CC#N)cc4)CC3)c2C2CC2)ccn1 (centres unmarked) [Compound 12-7] | 1000 to 3000 nM |
| C#Cc1cc(NC(=O)c2nnn(-c3ccc(-c4ccccc4)cc3)c2C2CC2)ccn1 [Compound 14-18] | 100 to 500 nM |
